According to patent publication US10919852B2, “Immunomodulator compounds” (CHEMOCENTRYX, INC., priority 2017, dated 2021):

The compounds below were run against human PD-L1 / Human PD-1 (Homo sapiens (Human), UniProt Q9NZQ7) (assay: Enzyme-Linked Immunosorbent Assay (ELISA), PD-1/PD-L1 binding). Conditions: plate-coated human PD-L1, biotinylated human PD-1.
Experimental: Biological Example: Enzyme-Linked Immunosorbent Assay—ELISA
96 Well plates were coated with […] of human PD-L1 (obtained from R&D) in PBS overnight at 4° C. The wells were then blocked with 2% BSA in PBS (W/V) with 0.05% TWEEN-20 for 1 hour at 37° C. The plates were washed 3 times with PBS/0.05% TWEEN-20 and the compounds were serial diluted (1:5) in dilution medium and added to the ELISA plates. Human PD-1 and biotin 0.3 μg/mL (ACRO Biosystems) were added and incubated for 1 hour at 37° C. then washed 3 times with PBS/0.05% TWEEN-20. A second block was performed with 2% BSA in PBS (W/V)/0.05% TWEEN-20 for 10 min at 37° C. and was washed 3 times with PBS/0.05% TWEEN-20. Streptavidin-HRP was added for 1 hour at 37° C. then washed 3 times with PBS/0.05% TWEEN-20. TMB substrate was added and reacted for 20 min at 37° C. A stop solution (2 N aqueous H2SO4) was added. The absorbance was read at 450 nm using a micro-plate spectrophotometer.

Chain of human PD-L1 / Human PD-1 (Q9NZQ7 19-239): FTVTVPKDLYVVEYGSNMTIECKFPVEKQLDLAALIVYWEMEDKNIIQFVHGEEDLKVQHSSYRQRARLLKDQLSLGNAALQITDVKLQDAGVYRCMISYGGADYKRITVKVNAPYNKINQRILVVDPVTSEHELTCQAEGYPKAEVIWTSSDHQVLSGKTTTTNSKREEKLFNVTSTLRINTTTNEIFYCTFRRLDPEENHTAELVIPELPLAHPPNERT

| Structure (SMILES) | IC50 [nM] |
| --- | --- |
| Cc1c(OCCCN2CCC[C@@H](O)C2)cccc1-c1cccc2c1CC[C@@H]2Oc1cc(OCc2cncc(C#N)c2)c(CN[C@H](C(=O)O)[C@@H](C)O)cc1Cl | < 5 |
| Cc1c(OCCCN2CCC[C@H](O)C2)cccc1-c1cccc2c1CC[C@@H]2Oc1cc(OCc2cncc(C#N)c2)c(CN[C@H](C(=O)O)[C@@H](C)O)cc1Cl | < 5 |
| Cc1c(OCCCN2CCC(O)CC2)cccc1-c1cccc2c1CC[C@@H]2Oc1cc(OCc2cc(C#N)cc(C#N)c2)c(CN[C@@](C)(CO)C(=O)O)cc1Cl | < 5 |
| Cc1c(OCCCN2CC[C@@H](O)C2)cccc1-c1cccc2c1CC[C@@H]2Oc1cc(OCc2cncc(C#N)c2)c(CN[C@H](C(=O)O)[C@@H](C)O)cc1Cl | < 5 |
| Cc1c(OCCCN2CCC(F)CC2)cccc1-c1cccc2c1CC[C@@H]2Oc1cc(OCc2cncc(C#N)c2)c(CN[C@H](C(=O)O)[C@@H](C)O)cc1Cl | < 5 |
| N#Cc1cncc(COc2cc(O[C@H]3CCc4c(-c5cccc(OCCCN6CC(O)C6)c5Cl)cccc43)c(Cl)cc2CNC[C@@H]2CCC(=O)N2)c1 | < 5 |
| N#Cc1cncc(COc2cc(O[C@H]3CCc4c(-c5cccc(OCCCN6CC(O)C6)c5Cl)cccc43)c(Cl)cc2CN2CC3(CC(O)C3)C2)c1 | < 5 |
| CC(C)(O)CNCc1cc(Cl)c(O[C@H]2CCc3c(-c4cccc(OCCCN5CC(O)C5)c4Cl)cccc32)cc1OCc1cncc(C#N)c1 | < 5 |
| C[C@@H](O)[C@H](NCc1cc(Cl)c(O[C@H]2CCc3c(-c4cccc(OCCCN5CC(O)C5)c4Cl)cccc32)cc1OCc1cncc(C#N)c1)C(=O)O | < 5 |
| N#Cc1cncc(COc2cc(O[C@H]3CCc4c(-c5cccc(OCCCN6CC(O)C6)c5Cl)cccc43)c(Cl)cc2CNCC(=O)O)c1 | < 5 |
| CCCC(CO)(NCc1cc(Cl)c(O[C@H]2CCc3c(-c4cccc(OCCCN5CC(O)C5)c4Cl)cccc32)cc1OCc1cncc(C#N)c1)C(=O)O (some centres unmarked) | < 5 |
| COc1cc(O[C@H]2CCc3c(-c4cccc(OCCCN5CC(O)C5)c4Cl)cccc32)cc(OC)c1CN[C@@](C)(CO)C(=O)O | 5 to 500 |
| C[C@@](CO)(NCc1cc(Cl)c(O[C@H]2CCc3c(-c4cccc(OCCCN5CC(O)C5)c4Cl)cccc32)cc1-c1cncc(C#N)c1)C(=O)O | < 5 |
| Cc1c(OCCCN2CCC(F)CC2)cccc1-c1cccc2c1CC[C@@H]2Oc1cc(OCc2cncc(C#N)c2)c(CNC[C@H]2CCC(=O)N2)cc1Cl | < 5 |
| N#Cc1cncc(COc2cc(O[C@H]3CCc4c(-c5cccc(OCCCN6CCC(O)CC6)c5Cl)cccc43)c(Cl)cc2CNC[C@@H]2CCC(=O)N2)c1 | < 5 |
| N#Cc1cncc(COc2cc(O[C@H]3CCc4c(-c5cccc(OCCCN6CCC(O)CC6)c5Cl)cccc43)c(Cl)cc2CNC[C@H]2CCC(=O)N2)c1 | < 5 |
| N#Cc1cncc(COc2cc(O[C@H]3CCc4c(-c5cccc(OCCCN6CCC(F)CC6)c5Cl)cccc43)c(Cl)cc2CNC[C@H]2CCC(=O)N2)c1 | < 5 |
| N#Cc1cncc(COc2cc(O[C@H]3CCc4c(-c5cccc(OCCCN6CCC(F)CC6)c5Cl)cccc43)c(Cl)cc2CN2CC[C@@H](O)C2)c1 | < 5 |
| N#Cc1cncc(COc2cc(O[C@H]3CCc4c(-c5cccc(OCCCN6CCC(F)CC6)c5Cl)cccc43)c(Cl)cc2CN[C@H]2CCOC[C@@H]2O)c1 | < 5 |

| Structure (SMILES) | IC50 [nM] |
| --- | --- |
| N#Cc1cncc(COc2cc(O[C@H]3CCc4c(-c5cccc(OCCCN6CCC(F)CC6)c5Cl)cccc43)c(Cl)cc2CN2CC[C@@H](F)C2)c1 | < 5 |
| CC1(O)CN(Cc2cc(Cl)c(O[C@H]3CCc4c(-c5cccc(OCCCN6CCC(F)CC6)c5Cl)cccc43)cc2OCc2cncc(C#N)c2)C1 | < 5 |
| CC1(O)CCN(Cc2cc(Cl)c(O[C@H]3CCc4c(-c5cccc(OCCCN6CCC(F)CC6)c5Cl)cccc43)cc2OCc2cncc(C#N)c2)CC1 | < 5 |
| N#Cc1cncc(COc2cc(O[C@H]3CCc4c(-c5cccc(OCCCN6CC7(CC(O)C7)C6)c5Cl)cccc43)c(Cl)cc2CN[C@@H]2CCCC[C@@H]2O)c1 | < 5 |
| N#Cc1cncc(COc2cc(O[C@H]3CCc4c(-c5cccc(OCCCN6CC(F)(F)C6)c5Cl)cccc43)c(Cl)cc2CNC[C@@H]2CCC(=O)N2)c1 | 5 to 500 |
| Cc1c(OCCCN2CCC(F)CC2)cccc1-c1cccc2c1CC[C@@H]2Oc1cc(OCc2cc(C#N)cc(C#N)c2)c(CNC[C@H]2CCC(=O)N2)cc1Cl | 5 to 500 |
| N#Cc1cncc(COc2cc(O[C@H]3CCc4c(-c5cccc(OCCCN6CCCCC6)c5Cl)cccc43)c(Cl)cc2CNC[C@H]2CCC(=O)N2)c1 | < 5 |
| N#Cc1cncc(COc2cc(O[C@H]3CCc4c(-c5cccc(OCCCN6CCCCC6)c5Cl)cccc43)c(Cl)cc2CNC[C@@H]2CCC(=O)N2)c1 | < 5 |
| N#Cc1cncc(COc2cc(O[C@H]3CCc4c(-c5cccc(OCCCN6CCCCC6)c5Cl)cccc43)c(Cl)cc2CN[C@@H]2CCCC[C@@H]2O)c1 | < 5 |
| C[C@@H](O)[C@H](NCc1cc(Cl)c(O[C@H]2CCc3c(-c4cccc(OCCCN5CCCCC5)c4Cl)cccc32)cc1OCc1cncc(C#N)c1)C(=O)NS(C)(=O)=O | < 5 |
| N#Cc1cncc(COc2cc(O[C@H]3CCc4c(-c5cccc(OCCCN6CC(F)(F)C6)c5Cl)cccc43)c(Cl)cc2CNC[C@H]2CCC(=O)N2)c1 | 5 to 500 |
| N#Cc1cncc(COc2cc(O[C@H]3CCc4c(-c5cccc(OCCCN6CCC(F)CC6)c5Cl)cccc43)c(Cl)cc2CN[C@@H]2CCC[C@@H]2O)c1 | < 5 |
| N#Cc1cncc(COc2cc(O[C@H]3CCc4c(-c5cccc(OCCCN6CCC(F)CC6)c5Cl)cccc43)c(Cl)cc2CN[C@@H]2CCC[C@H]2O)c1 | < 5 |
| C[C@@](CO)(NCc1cc(Cl)c(O[C@H]2CCc3c(-c4cccc(OCCCN)c4Cl)cccc32)cc1OCc1cncc(C#N)c1)C(=O)O | < 5 |
| CC1(C)CC(O)CCN1CCCOc1cccc(-c2cccc3c2CC[C@@H]3Oc2cc(OCc3cncc(C#N)c3)c(CN[C@@H]3CCCC[C@@H]3O)cc2Cl)c1Cl (some centres unmarked) | < 5 |
| CC1(F)CCN(CCCOc2cccc(-c3cccc4c3CC[C@@H]4Oc3cc(OCc4cncc(C#N)c4)c(CN[C@@H]4CCCC[C@@H]4O)cc3Cl)c2Cl)CC1 | < 5 |
| C[C@@H](O)[C@H](NCc1cc(Cl)c(O[C@H]2CCc3c(-c4cccc(OCCCN5CCC(C)(F)CC5)c4Cl)cccc32)cc1OCc1cncc(C#N)c1)C(=O)NS(C)(=O)=O | < 5 |
| CCOc1cc(O[C@H]2CCc3c(-c4cccc(OCCCN5CCC(F)CC5)c4Cl)cccc32)c(Cl)cc1CN[C@@H]1CCOC[C@H]1O | 5 to 500 |
| CCOc1cc(O[C@H]2CCc3c(-c4cccc(OCCCN5CCC(F)CC5)c4Cl)cccc32)c(Cl)cc1CN[C@H](C(=O)NS(C)(=O)=O)[C@@H](C)O | 5 to 500 |

| Structure (SMILES) | IC50 [nM] |
| --- | --- |
| CC(=O)OC1CCN(CCCOc2cccc(-c3cccc4c3CC[C@@H]4Oc3cc(OCc4cncc(C#N)c4)c(CN[C@@H]4CCCC[C@@H]4O)cc3Cl)c2Cl)CC1 | < 5 |
| N#Cc1cncc(COc2cc(O[C@H]3CCc4c(-c5cccc(OCCCN6CCC(F)CC6)c5Cl)cccc43)c(Cl)cc2CN[C@H]2CCC[C@H]2O)c1 | < 5 |
| N#Cc1cncc(COc2cc(O[C@H]3CCc4c(-c5cccc(OCCCN6CCC(F)CC6)c5Cl)cccc43)c(Cl)cc2CN[C@H]2CCC[C@@H]2O)c1 | < 5 |
| N#Cc1cncc(COc2cc(O[C@H]3CCc4c(-c5cccc(OCCCN6CCC(F)CC6)c5Cl)cccc43)c(Cl)cc2CNCC2CNC(=O)C2)c1 (some centres unmarked) | < 5 |
| Cc1c(OCCCN2CCC(F)CC2)cccc1-c1cccc2c1CC[C@@H]2Oc1cc(OCc2cc(C#N)cc(C#N)c2)c(CNC[C@@H]2CCC(=O)N2)cc1Cl | < 5 |
| CC1(F)CCN(Cc2cc(Cl)c(O[C@H]3CCc4c(-c5cccc(OCCCN6CCC(F)CC6)c5Cl)cccc43)cc2OCc2cncc(C#N)c2)CC1 | 5 to 500 |
| C[C@@](CO)(NCc1cc(Cl)c(O[C@H]2CCc3c(-c4cccc(OCCCN5CCC5)c4Cl)cccc32)cc1OCc1cncc(C#N)c1)C(=O)O | < 5 |
| N#Cc1cncc(-c2cc(O[C@H]3CCc4c(-c5cccc(OCCCN6CCC(F)CC6)c5Cl)cccc43)c(Cl)cc2CNC[C@H]2CCC(=O)N2)c1 | 500 to 20000 |
| N#Cc1cncc(-c2cc(O[C@H]3CCc4c(-c5cccc(OCCCN6CCC(F)CC6)c5Cl)cccc43)c(Cl)cc2CN[C@@H]2CCCC[C@@H]2O)c1 | 5 to 500 |
| C[C@@H](O)[C@H](NCc1cc(Cl)c(O[C@H]2CCc3c(-c4cccc(OCCCN5CCC(F)CC5)c4Cl)cccc32)cc1OCc1cncc(C#N)c1)C(=O)NS(C)(=O)=O | < 5 |
| N#Cc1cncc(COc2cc(O[C@H]3CCc4c(-c5cccc(OCCCN6CCC(F)CC6)c5Cl)cccc43)c(Cl)cc2CN[C@@H]2CCOC[C@H]2O)c1 | < 5 |
| N#Cc1cncc(COc2cc(O[C@H]3CCc4c(-c5cccc(OCCCN6CCC(F)CC6)c5Cl)cccc43)c(Cl)cc2CN[C@@H]2CCOC[C@@H]2O)c1 | < 5 |
| N#Cc1cncc(COc2cc(O[C@H]3CCc4c(-c5cccc(OCCCN6CCC(F)CC6)c5Cl)cccc43)c(Cl)cc2CN[C@H]2CCOC[C@H]2O)c1 | < 5 |
| N#Cc1cncc(COc2cc(O[C@H]3CCc4c(-c5cccc(OCCCN6CC7(CC(O)C7)C6)c5Cl)cccc43)c(Cl)cc2CN[C@@H]2CCC[C@@H]2O)c1 | < 5 |
| N#Cc1cncc(COc2cc(O[C@H]3CCc4c(-c5cccc(OCCCN6CC7(CC(O)C7)C6)c5Cl)cccc43)c(Cl)cc2CN[C@@H]2CCC[C@H]2O)c1 | < 5 |
| N#Cc1cncc(COc2cc(O[C@H]3CCc4c(-c5cccc(OCCCN6CC7(CC(O)C7)C6)c5Cl)cccc43)c(Cl)cc2CN[C@H]2CCC[C@H]2O)c1 | < 5 |
| N#Cc1cncc(COc2cc(O[C@H]3CCc4c(-c5cccc(OCCCN6CCC(F)CC6)c5Cl)cccc43)c(Cl)cc2CN2CCNC(=O)C2)c1 | 5 to 500 |
| N#Cc1cncc(COc2cc(O[C@H]3CCc4c(-c5cccc(OCCCN6CCC(F)CC6)c5Cl)cccc43)c(Cl)cc2CN[C@@H]2CCOC[C@@H]2F)c1 | 5 to 500 |
